The text below walks through data of patent US20230295181A1, “INHIBITOR OF APOPTOSIS (IAP) PROTEIN ANTAGONISTS” (Sanford Burnham Prebys Medical Discovery Institute, priority 2020, published 2023).

Counter-ions that a name gives are not always drawn.

In the first data set the test system is SKOV-3 cancer cell lines. In words: SKOV-3 cell viability after treatment with 10 μM test compound. It is filed as cell-based. The note with it: 10 micromolar test compound, dihydrochloride. The method, then: SKOV-3 cancer cell lines were treated with a test compound, either as a pure enantiomer or a mixture of stereoisomers, at a concentration of 10 μM. Cell viability was evaluated following treatment with a compound as disclosed in Table B. Viability of cancer cells following treatment is indicated according to the following legend:
A=0-25% viability B=26-50% viability C=>50% viability
Regarding `CN[C@@H](C)C(=O)N[C@H]1CCO[C@H]2CC(C)(C)[C@@H](CN[C@@H]3CCSc4ccccc43)N2C1=O` [Compound 67, (S)—N-((4S,7S,9aS)-8,8-dimethyl-5-oxo-7-((((R)-thiochroman-4-yl)amino)methyl)octahydropyrrolo[2,1-b][1,3]oxazepin-4-yl)-2-(methylamino)propanamide dihydrochloride], the “% viability after treatment with 10 micromolar of test compound (SKOV-3 cells)” value (“% viability after treatment” below) is reported as “B (B=26-50% viability)”.

Staying with this data set, now noted: 10 micromolar test compound, hydrochloride.
`C=CCC1(CC=C)C[C@@H]2SCC[C@H](NC(=O)[C@H](C)NC)C(=O)N2[C@@H]1C(=O)N[C@@H]1CCCc2ccccc21` [Compound 31, (4S,9aS)-8,8-diallyl-4-((S)-2-(methylamino)propanamido)-5-oxo-N—((R)-1,2,3,4-tetrahydronaphthalen-1-yl)octahydropyrrolo[2,1-b][1,3]thiazepine-7-carboxamide hydrochloride]: the “% viability after treatment” value is on record as “B (B=26-50% viability)”. On to `CN[C@@H](C)C(=O)N[C@H]1CCS[C@H]2CC(C(C)C)(C(C)C)[C@@H](C(=O)N[C@@H]3CCCc4ccccc43)N2C1=O` [Compound 40, 4S,9aS)-8,8-diisopropyl-4-((S)-2-(methylamino)propanamido)-5-oxo-N—((R)-1,2,3,4-tetrahydronaphthalen-1-yl)octahydropyrrolo[2,1-b][1,3]thiazepine-7-carboxamide hydrochloride], for which the “% viability after treatment” value was “C (C=>50% viability)”. As for `CCC1(CC)C[C@@H]2SCC[C@H](NC(=O)[C@H](C)NC)C(=O)N2[C@@H]1C(=O)N[C@@H]1CCCc2ccccc21` [Compound 35, (4S,9aS)-8,8-diethyl-4-((S)-2-(methylamino)propanamido)-5-oxo-N—((R)-1,2,3,4-tetrahydronaphthalen-1-yl)octahydropyrrolo[2,1-b][1,3]thiazepine-7-carboxamide hydrochloride], the “% viability after treatment” value is given as “A (A=0-25% viability)”. Turning to `CN[C@@H](C)C(=O)N[C@H]1CCO[C@H]2CC(C(C)C)(C(C)C)[C@@H](C(=O)NC(c3ccccc3)c3ccccc3)N2C1=O` [Compound 61, (4S)—N-benzhydryl-8,8-diisopropyl-4-((S)-2-(methylamino)propanamido)-5-oxooctahydropyrrolo[2,1-b][1,3]oxazepine-7-carboxamide hydrochloride], the “% viability after treatment” value is “B (B=26-50% viability)”. In the case of `C=CCC1(CC=C)C[C@@H]2OCC[C@H](NC(=O)[C@H](C)NC)C(=O)N2[C@@H]1C(=O)NC(c1ccccc1)c1ccccc1` [Compound 50, (4S)-8,8-diallyl-N-benzhydryl-4-((S)-2-(methylamino)propanamido)-5-oxooctahydropyrrolo[2,1-b][1,3]oxazepine-7-carboxamide hydrochloride], the “% viability after treatment” value is “B (B=26-50% viability)”. On to `C=CCC1(CC=C)C[C@@H]2OCC[C@H](NC(=O)[C@H](C)NC)C(=O)N2[C@@H]1C(=O)NC(c1ccccc1)c1ccccc1` [Compound 48, (4S)-8,8-diallyl-N-benzhydryl-4-((S)-2-(methylamino)propanamido)-5-oxooctahydropyrrolo[2,1-b][1,3]oxazepine-7-carboxamide hydrochloride], for which the “% viability after treatment” value is “C (C=>50% viability)”.

`C=CCC1C[C@@H]2SCC[C@H](NC(=O)[C@H](C)NC)C(=O)N2[C@@H]1C(=O)N[C@@H]1CCCc2ccccc21` (stereo partly drawn) [Compound 27, (4S,9aS)-8,8-allyl-4-((S)-2-(methylamino)propanamido)-5-oxo-N—((R)-1,2,3,4-tetrahydronaphthalen-1-yl)octahydropyrrolo[2,1-b][1,3]thiazepine-7-carboxamide hydrochloride]: the “% viability after treatment” value is on record as “B (B=26-50% viability)”.

The same data set, now with this note: Homo sapiens, SK-OV-3, 10 micromolar test compound; SKOV-3 cells.
What is called viability is a per cent measure of how many cells are alive, often set against a control. A higher viability goes with better survival. `CN[C@@H](C)C(=O)N[C@H]1Cc2cc(OC)ccc2[C@H]2CC(C)(C)C(C(=O)NC(c3ccccc3)c3ccccc3)N2C1=O` (stereo partly drawn) [Compound 5, (6S,11bR)—N-benzhydryl-9-methoxy-2,2-dimethyl-6-((S)-2-(methylamino)propanamido)-5-oxo-2,3,5,6,7,11b-hexahydro-1H-benzo[c]pyrrolo[1,2-a]azepine-3-carboxamide] gave a viability at 10 µM of more than 50%. For `CN[C@@H](C)C(=O)N[C@H]1Cc2ccc(OC)cc2[C@H]2CC(C)(C)C(C(=O)NC(c3ccccc3)c3ccccc3)N2C1=O` (single isomer, unassigned) [Compound 6, hydrochloride], the viability at 10 µM fell in the range of 26 to 50%. Regarding `CN[C@@H](C)C(=O)N[C@H]1CCOC2c3ccncc3C(C(=O)N[C@@H]3CCCc4ccccc43)N2C1=O` (stereo partly drawn) [Compound 4, (4S)-4-((S)-2-(methylamino)propanamido)-5-oxo-N—((R)-1,2,3,4-tetrahydronaphthalen-1-yl)-2,3,4,5,7,11b-hexahydropyrido[4′,3′:3,4]pyrrolo[2,1-b][1,3]oxazepine-7-carboxamide dihydrochloride], the viability at 10 µM is more than 50%. For `CN[C@@H](C)C(=O)N[C@H]1CCO[C@H]2CC(CCc3ccccc3)(CCc3ccccc3)C(C(=O)N[C@@H]3CCCc4ccccc43)N2C1=O` (stereo partly drawn) [Compound 23, (4S,9aS)-4-((S)-2-(methylamino)propanamido)-5-oxo-8,8-diphenethyl-N—((R)-1,2,3,4-tetrahydronaphthalen-1-yl)octahydropyrrolo[2,1-b][1,3]oxazepine-7-carboxamide hydrochloride], the viability at 10 µM was 26 to 50%. Compound `CN[C@@H](C)C(=O)N[C@H]1Cc2c([nH]c3ccccc23)[C@H]2CC(C)(C)C(C(=O)N[C@@H]3CCCc4ccccc43)N2C1=O` (stereo in doubt) [Compound 3, (3S, 6S,12bR)-2,2-dimethyl-6-((S)-2-(methylamino)propanamido)-5-oxo-N—((R)-1,2,3,4-tetrahydronaphthalen-1-yl)-1,2,3,5,6,7,12,12b-octahydropyrrolo[1′,2′:1,2]azepino[3,4-b]indole-3-carboxamide hydrochloride] returned a viability at 10 µM of more than 50%.

`CCC1(CC)C[C@@H]2OCC[C@H](NC(=O)[C@H](C)NC)C(=O)N2[C@H]1C(=O)N[C@@H]1CCCc2ccccc21` [Compound 19, (4S)-8,8-diethyl-4-((S)-2-(methylamino)propanamido)-5-oxo-N—((R)-1,2,3,4-tetrahydronaphthalen-1-yl)octahydropyrrolo[2,1-b][1,3]oxazepine-7-carboxamide hydrochloride] gave a viability at 10 µM of 26 to 50%. `CN[C@@H](C)C(=O)N[C@H]1Cc2cc(OC)ccc2[C@H]2CC(C)(C)[C@H](C(=O)N[C@@H]3CCCc4ccccc43)N2C1=O` [Compound 8, (6S,11bR)-9-methoxy-2,2-dimethyl-6-((S)-2-(methylamino)propanamido)-5-oxo-N—((R)-1,2,3,4-tetrahydronaphthalen-1-yl)-2,3,5,6,7,11b-hexahydro-1H-benzo[c]pyrrolo[1,2-a]azepine-3-carboxamide hydrochloride] had a viability at 10 µM of 26 to 50%.

For `CN[C@@H](C)C(=O)N[C@@H]1C(=O)N2[C@H](CC(C)[C@H]2C(=O)N[C@@H]2CCCc3ccccc32)OC2CCCCC21` (stereo partly shown) [Compound 64, hydrochloride], the viability at 10 µM fell in the range of 0 to 25%.

Compound `CN[C@@H](C)C(=O)N[C@H]1CCS[C@H]2CC(C)(C)[C@@H](C(=O)N[C@H](CCC(=O)O)c3ccccc3)N2C1=O` [Compound 77, (R)-4-((4S,7S,9aS)-8,8-dimethyl-4-((S)-2-(methylamino)propanamido)-5-oxooctahydropyrrolo[2,1-b][1,3]thiazepine-7-carboxamido)-4-phenylbutanoic acid hydrochloride] gave a viability at 10 µM of 26 to 50%.

`CN[C@@H](C)C(=O)N[C@H]1Cc2ccc(OC)cc2[C@H]2CC(C)(C)[C@H](C(=O)N[C@@H]3CCCc4ccccc43)N2C1=O` [Compound 10, (6S,11bR)-10-methoxy-2,2-dimethyl-6-((S)-2-(methylamino)propanamido)-5-oxo-N—((R)-1,2,3,4-tetrahydronaphthalen-1-yl)-2,3,5,6,7,11b-hexahydro-1H-benzo[c]pyrrolo[1,2-a]azepine-3-carboxamide hydrochloride] came in with a viability at 10 µM of 26 to 50%. On the same count and under the same terms, then `CN[C@@H](C)C(=O)N[C@H]1CCO[C@H]2CC(C)(C)[C@@H](CN[C@@H]3CCOc4ccccc43)N2C1=O` [Compound 73, (S)—N-((4S,7S,9aS)-7-((((R)-chroman-4-yl)amino)methyl)-8,8-dimethyl-5-oxooctahydropyrrolo[2,1-b][1,3]oxazepin-4-yl)-2-(methylamino)propanamide dihydrochloride], with 26 to 50%. The compound `CN[C@@H](C)C(=O)N[C@H]1CCS[C@H]2CC(C)(C)[C@@H](C(=O)N[C@H]3c4ccccc4C[C@H]3OCCF)N2C1=O` [Compound 78, (4S,7S,9aS)—N-((1S,2R)-2-(2-fluoroethoxy)-2,3-dihydro-1H-inden-1-yl)-8,8-dimethyl-4-((S)-2-(methylamino)propanamido)-5-oxooctahydropyrrolo[2,1-b][1,3]thiazepine-7-carboxamide hydrochloride] came in with a viability at 10 µM of 0 to 25%.

Compound `C#CCO[C@@H]1Cc2ccccc2[C@@H]1NC(=O)[C@H]1N2C(=O)[C@@H](NC(=O)[C@H](C)NC)CCS[C@H]2CC1(C)C` [Compound 83, (2S)-1-{[(4S,7S,9aS)-8,8-Dimethyl-5-oxo-7-{[(1S,2R)-2-(prop-2-yn-1-yloxy)-2,3-dihydro-1H-inden-1-yl]carbamoyl}octahydropyrrolo[2,1-b][1,3]thiazepin-4-yl]amino}-N-methyl-1-oxopropan-2-ammonium chloride] gave a viability at 10 µM of 0 to 25%.

Regarding `C=CCC1(CC=C)C[C@@H]2OCC[C@H](NC(=O)[C@H](C)NC)C(=O)N2C1C(=O)N[C@@H]1CCCc2ccccc21` (stereo partly drawn) [Compound 12, (4S,9aS)-8,8-diallyl-4-((S)-2-(methylamino)propanamido)-5-oxo-N—((R)-1,2,3,4-tetrahydronaphthalen-1-yl)octahydropyrrolo[2,1-b][1,3]oxazepine-7-carboxamide hydrochloride], the viability at 10 µM lay in the range of 26 to 50%.
